Patent US20260250289A1, “BICYCLIC HETEROCYCLES AND THEIR USE AS WRN INHIBITORS” (Novartis AG, priority 2022, published 2026)
pIC50: −log10 of the molar value.

Key:
DLD1-WRN-KO cells = assay: Proliferation assay DLD1-WRN-KO (CellTiterGlo, off-target effects); assay type: cell-based; details: 96 hours, geometric mean of at least 2
Procedure, shortened: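 DLD1 cells with CRISPR knockout of WRN were exposed overnight-seeded to eight 3-fold compound dilutions (0.1% DMSO) for 96 h at 37 °C. Viability was read as ATP by CellTiterGlo luminescence against a day-0 plate, giving GI50 and residual viability at top concentration.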

[1] = molecular target: T1, WRN helicase (aa N517-P1238) (Homo sapiens, UniProt Q14191); assay: WRN ATPase assay (DNA dependent ATP hydrolysis, ADP-Glo); assay type: biochemical; details: 3 hours pre-incubation, 300 micromolar ATP, FLAP26 DNA; geometric mean of at least 2
T1 construct: The core helicase motif of the WRN protein (aa N517-P1238) was produced for this assay; His (N); ZZ (N); 3C protease cleavage site (N); made in house; host or cells: Sf21 insect cells (baculovirus; virus and BIICs made in SF9)
T1 sequence (Q14191 517-1238): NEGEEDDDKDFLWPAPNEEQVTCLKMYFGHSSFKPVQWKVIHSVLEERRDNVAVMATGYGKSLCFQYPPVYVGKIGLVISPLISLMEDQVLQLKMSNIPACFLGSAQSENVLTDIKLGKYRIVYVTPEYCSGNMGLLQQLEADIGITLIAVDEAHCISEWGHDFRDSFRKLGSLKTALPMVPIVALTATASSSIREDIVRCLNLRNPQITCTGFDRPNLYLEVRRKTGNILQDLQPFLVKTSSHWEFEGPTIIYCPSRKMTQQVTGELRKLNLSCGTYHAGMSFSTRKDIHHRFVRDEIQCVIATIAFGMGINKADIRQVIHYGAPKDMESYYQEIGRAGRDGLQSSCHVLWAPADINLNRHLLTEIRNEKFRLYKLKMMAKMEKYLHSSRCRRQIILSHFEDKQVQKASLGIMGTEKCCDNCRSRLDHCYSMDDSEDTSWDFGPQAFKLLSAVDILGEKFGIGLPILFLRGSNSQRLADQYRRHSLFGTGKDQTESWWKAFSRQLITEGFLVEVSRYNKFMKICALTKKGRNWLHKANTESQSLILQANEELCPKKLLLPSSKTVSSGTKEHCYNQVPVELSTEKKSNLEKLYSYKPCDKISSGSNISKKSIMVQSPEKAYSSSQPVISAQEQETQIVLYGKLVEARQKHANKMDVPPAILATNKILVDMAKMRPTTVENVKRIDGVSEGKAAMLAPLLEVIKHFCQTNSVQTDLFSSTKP
Procedure, shortened: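 DNA-dependent ATP hydrolysis detected as ADP by ADP-Glo luminescence, using 300 μM ATP, 0.2 nM FLAP26 substrate and 10 nM WRN aa N517-P1238 (Tris pH 7.5 buffer, 2 mM MgCl2, 50 mM NaCl). IC50s fitted from normalized duplicate half-log dilutions; reported as geometric means of at least 2 replicates.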

SW48 cells = assay: Proliferation assay SW48 (CellTiterGlo); assay type: cell-based; details: Homo sapiens, SW48, 96 h, SW48 colon carcinoma cells, 96 hours, CellTiterGlo; geometric mean of at least 2; read-out: Proliferation Assay SW48 GI50
Procedure, shortened: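 Read-out is CellTiterGlo luminescence after 96 hours of compound exposure, with % growth calculated against day-0 and vehicle-treated ATP levels. SW48 seeded at 2,000 cells/well, dosed next day with eight 3-fold serial dilutions, 0.1% DMSO. GI50 reported as geometric mean, at least 2 replicates.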

Row | SMILES | GI50 (DLD1-WRN-KO cells) [nM] | pIC50 [1] | GI50 (SW48 cells) [nM]
1 | CC(=O)N1CCN(c2c(C)n(CC(=O)Nc3ccc(C(F)(F)F)cc3)c3nc(-c4cccnc4)nn3c2=O)CC1 [Example 106, 2-(6-(4-acetylpiperazin-1-yl)-5-methyl-7-oxo-2-(pyridin-3-yl)-[1,2,4]triazolo[1,5-a]pyrimidin-4(7H)-yl)-N-(4-(trifluoromethyl)phenyl)acetamide] | > 10000 | 7.00 | 200
2 | CC(=O)N1CCN(c2c(C)n(CC(=O)Nc3ccc(C(F)(F)F)cc3)c3nc(-c4ccc(CN(C)C(=O)OC(C)(C)C)cc4)nn3c2=O)CC1 [Example 95, tert-butyl (4-(6-(4-acetylpiperazin-1-yl)-5-methyl-7-oxo-4-(2-oxo-2-((4-(trifluoromethyl)phenyl)amino)ethyl)-4,7-dihydro-[1,2,4]triazolo[1,5-a]pyrimidin-2-yl)benzyl)(methyl)carbamate] | > 10000 | 6.10 | 2000
3 | Cc1c(N2CCN(C(=O)c3cncc(F)c3O)CC2)c(=O)n2nc(C3=CCOCC3)nc2n1CC(=O)Nc1ccc(C(F)(F)F)cc1 [Example 22, 2-(2-(3,6-dihydro-2H-pyran-4-yl)-6-(4-(5-fluoro-4-hydroxynicotinoyl)piperazin-1-yl)-5-methyl-7-oxo-[1,2,4]triazolo[1,5-a]pyrimidin-4(7H)-yl)-N-(4-(trifluoromethyl)phenyl)acetamide] | > 10000 | 7.00 | > 10000
4 | COC(=O)N1CCN(c2nc3n(CC(=O)Nc4ccc(S(F)(F)(F)(F)F)cc4)c(C)c(N4CCN(C(C)=O)CC4)c(=O)n3n2)CC1 [Example 81, methyl 4-(6-(4-acetylpiperazin-1-yl)-5-methyl-7-oxo-4-(2-oxo-2-((4-(pentafluoro-l6-sulfaneyl)phenyl)amino)ethyl)-4,7-dihydro-[1,2,4]triazolo[1,5-a]pyrimidin-2-yl)piperazine-1-carboxylate] | > 10000 | 6.52 | 4000
5 | [2H]C([2H])(C(=O)Nc1ccc(C(F)(F)F)cc1)n1c(CC)c(N2CCN(C(C)=O)CC2)c(=O)n2nc(C3=CCOCC3)nc12 [Example 82, 2-(6-(4-acetylpiperazin-1-yl)-2-(3,6-dihydro-2H-pyran-4-yl)-5-ethyl-7-oxo-[1,2,4]triazolo[1,5-a]pyrimidin-4(7H)-yl)-N-(4-(trifluoromethyl)phenyl)acetamide-2,2-d2] | > 10000 | 6.52 | 2000
6 | CC(=O)N1CCN(c2c(C)n(CC(=O)Nc3ccc(C(F)(F)F)cc3F)c3nc(C4=CCOCC4)nn3c2=O)CC1 [Example 85, 2-(6-(4-acetylpiperazin-1-yl)-2-(3,6-dihydro-2H-pyran-4-yl)-5-methyl-7-oxo-[1,2,4]triazolo[1,5-a]pyrimidin-4(7H)-yl)-N-(2-fluoro-4-(trifluoromethyl)phenyl)acetamide] | > 10000 | 6.30 | 4000
7 | CC(=O)N1CCN(c2c(C)n(CC(=O)Nc3ccc(C(F)(F)F)cc3)c3nc(-c4cnn(C(F)F)c4)nn3c2=O)CC1 [Example 128, 2-(6-(4-acetylpiperazin-1-yl)-2-(1-(difluoromethyl)-1H-pyrazol-4-yl)-5-methyl-7-oxo-[1,2,4]triazolo[1,5-a]pyrimidin-4(7H)-yl)-N-(4-(trifluoromethyl)phenyl)acetamide] | > 10000 | 6.10 | 7000
8 | Cc1c(N2CCN(C(=O)c3cnccc3O)CC2)c(=O)n2nc(N3CCOCC3)nc2n1CC(=O)Nc1ccc(C(F)(F)F)cc1 [Example 152, 2-(5-methyl-2-morpholino-7-oxo-6-(4-(4-oxo-1,4-dihydropyridine-3-carbonyl)piperazin-1-yl)-[1,2,4]triazolo[1,5-a]pyrimidin-4(7H)-yl)-N-(4-(trifluoromethyl)phenyl)acetamide] | > 10000 | 6.30 | > 10000
9 | Cc1c(N2CCN(C(=O)c3cc(F)cnc3O)CC2)c(=O)n2nc(C3=CCOCC3)nc2n1CC(=O)Nc1ccc(C(F)(F)F)cc1 [Example 21, 2-(2-(3,6-dihydro-2H-pyran-4-yl)-6-(4-(5-fluoro-2-hydroxynicotinoyl)piperazin-1-yl)-5-methyl-7-oxo-[1,2,4]triazolo[1,5-a]pyrimidin-4(7H)-yl)-N-(4-(trifluoromethyl)phenyl)acetamide] | > 10000 | 7.00 | > 10000
10 | CC(=O)N1CCN(c2c(C)n(CC(=O)Nc3ccc(C(F)(F)F)cc3)c3nc(-c4ccccc4)nn3c2=O)CC1 [Example 130, 2-(6-(4-acetylpiperazin-1-yl)-5-methyl-7-oxo-2-phenyl-[1,2,4]triazolo[1,5-a]pyrimidin-4(7H)-yl)-N-(4-(trifluoromethyl)phenyl)acetamide] | 7000 | 6.05 | 2000
11 | CCc1c(N2CCN(C(C)=O)CC2)c(=O)n2nc(C3=CCOCC3)nc2n1CC(=O)Nc1ccc(C(F)(F)F)cc1Cl [Example 59, 2-(6-(4-acetylpiperazin-1-yl)-2-(3,6-dihydro-2H-pyran-4-yl)-5-ethyl-7-oxo-[1,2,4]triazolo[1,5-a]pyrimidin-4(7H)-yl)-N-(2-chloro-4-(trifluoromethyl)phenyl)acetamide] | > 10000 | 6.52 | 1000
12 | Cc1c(N2CCN(C(=O)OCc3ccccc3)CC2)c(=O)n2nc(C3=CCOCC3)nc2n1CC(=O)Nc1ccc(C(F)(F)F)cc1 [Example 65, benzyl 4-(2-(3,6-dihydro-2H-pyran-4-yl)-5-methyl-7-oxo-4-(2-oxo-2-((4-(trifluoromethyl)phenyl)amino)ethyl)-4,7-dihydro-[1,2,4]triazolo[1,5-a]pyrimidin-6-yl)piperazine-1-carboxylate] | 4000 | 5.10 | 4000
13 | CCc1c(N2CCN(C(=O)c3c(O)ccc4nccn34)CC2)c(=O)n2nc(C3=CCOCC3)nc2n1CC(=O)Nc1ccc(C(F)(F)F)cc1C [Example 44, 2-(2-(3,6-dihydro-2H-pyran-4-yl)-5-ethyl-6-(4-(6-hydroxyimidazo[1,2-a]pyridine-5-carbonyl)piperazin-1-yl)-7-oxo-[1,2,4]triazolo[1,5-a]pyrimidin-4(7H)-yl)-N-(2-methyl-4-(trifluoromethyl)phenyl)acetamide] | > 10000 | 7.10 | 900
14 | COC(=O)N1CC=C(c2nc3n(CC(=O)Nc4ccc(S(F)(F)(F)(F)F)cc4)c(C)c(N4CCN(C(C)=O)CC4)c(=O)n3n2)CC1 [Example 156, methyl 4-(6-(4-acetylpiperazin-1-yl)-5-methyl-7-oxo-4-(2-oxo-2-((4-(pentafluoro-16-sulfaneyl)phenyl)amino)ethyl)-4,7-dihydro-[1,2,4]triazolo[1,5-a]pyrimidin-2-yl)-3,6-dihydropyridine-1(2H)-carboxylate] | > 10000 | 6.70 | 3000
15 | CC(=O)N1CCN(c2c(C)n(CC(=O)Nc3cc(F)c(C(F)(F)F)c(F)c3)c3nc(C4=CCOCC4)nn3c2=O)CC1 [Example 103, 2-(6-(4-acetylpiperazin-1-yl)-2-(3,6-dihydro-2H-pyran-4-yl)-5-methyl-7-oxo-[1,2,4]triazolo[1,5-a]pyrimidin-4(7H)-yl)-N-(3,5-difluoro-4-(trifluoromethyl)phenyl)acetamide] | > 10000 | 5.40 | 4000
16 | Cc1c(N2CCN(C(=O)c3c(O)cccc3O)CC2)c(=O)n2nc(C3=CCOCC3)nc2n1CC(=O)Nc1ccc(C(F)(F)F)cc1 [Example 15, 2-(2-(3,6-dihydro-2H-pyran-4-yl)-6-(4-(2,6-dihydroxybenzoyl)piperazin-1-yl)-5-methyl-7-oxo-[1,2,4]triazolo[1,5-a]pyrimidin-4(7H)-yl)-N-(4-(trifluoromethyl)phenyl)acetamide] | > 10000 | 7.30 | 4000
17 | Cc1c(N2CCN(C(=O)c3c(F)ccc(F)c3O)CC2)c(=O)n2nc(C3=CCOCC3)nc2n1CC(=O)Nc1ccc(C(F)(F)F)cc1 [Example 13, 2-(6-(4-(3,6-difluoro-2-hydroxybenzoyl)piperazin-1-yl)-2-(3,6-dihydro-2H-pyran-4-yl)-5-methyl-7-oxo-[1,2,4]triazolo[1,5-a]pyrimidin-4(7H)-yl)-N-(4-(trifluoromethyl)phenyl)acetamide] | > 10000 | 7.52 | 300
18 | CC(=O)N1CCN(c2c(C)n(CC(=O)Nc3ccc(S(F)(F)(F)(F)F)cc3C)c3nc(C4=CCOCC4)nn3c2=O)CC1 [Example 62, 2-(6-(4-acetylpiperazin-1-yl)-2-(3,6-dihydro-2H-pyran-4-yl)-5-methyl-7-oxo-[1,2,4]triazolo[1,5-a]pyrimidin-4(7H)-yl)-N-(2-methyl-4-(pentafluoro-l6-sulfaneyl)phenyl)acetamide] | > 10000 | 6.30 | 1000
